Patent US7659240B2, “Mucin immobilized chromatography” (Vertex Pharmaceuticals Incorporated, priority 2002, dated 2010)
Values joined by “and” are separate entries in the source; they are usually repeats but may differ in a detail not shown here. Equal values may be shown once. Where a name gives a salt, the structure may show the parent alone. Read-outs that look alike come from different tables or passages of the source.

Legend:
[1] = system: mucin immobilized to IAM.PC.DD2; experiment: HPLC on MIC column (2:1 mucin to PC IAM particles): retention time, k′MIC, derived Km and Peff MIC; conditions: for log k′MIC / K′MIC: MIC 2:1; for k′MIC / Retention Time: MIC column 2:1 mucin:IAM, MPS pH 7.4; for Retention Time: isocratic 0.3 ml/min; for Dm: membrane diffusion coefficient calculated from molecular weight; for Peff MIC (×10^−4 cm/s): determined by linear equation
Protocol: [formula] where Dm is the membrane diffusion coefficient of the solute, Km is the membrane equilibrium constant, and L is the membrane thickness (Stein, W., Transport and Diffusion Across Cell Membranes, Academic Press, Orlando, Fla. (1986)). […] Since molecular weight, MW, is proportional to molecular size, Dm may also written as,
[formula] Thus, Dm can be calculated from the molecular weight. Furthermore, Km is calculated by the following equation, Km−(Vm/Vs)k′, [4] where Vm is the volume of the mobile phase, Vs is the internal volume of the stationary phase, and k′ is the partition ratio (Pidgeon and Ong, Chemtech. June, 38-48 (1995)). The partition ratio is determined by the equation, k′−(tr−to)/to, [5] where tr is the retention time of the drug and to is the void volume of the column. Both tr and to can be experimentally determined in order to obtain k′.
Equation 2 can be used to determine Km for a given MIC medium. Both Dm and L are known from the discussion above, and Peff can be calculated for various drugs having known in vivo absorption. For example, a number of drug permeability coefficients, Peff, derived from in vivo experiments are listed in literature. […] See Example 5 below.

[2] = from literature; cited from earlier work
[3] = cited from earlier work
[4] = single-pass perfusions, cited from earlier work
[5] = system: mucin immobilized to PC IAM particles; experiment: pH and mucin layer thickness dependence of partition ratio on MIC columns (1:2 and 2:1); conditions: for k′MIC (1:2): column 1:2, 0.32 μm; for k′MIC (1:2) / k′MIC (2:1): pH 7, Table 9; for (1:2) k′ (pH 3) / (1:2) k′ (pH 5) / (1:2) k′ (pH 7): column 1:2 mucin to PC IAM, 0.32 μm mucin layer; for (1:2) k′ (pH 3) / (2:1) k′ (pH 3): mobile phase pH 3; for (1:2) k′ (pH 5) / (2:1) k′ (pH 5): mobile phase pH 5; for (1:2) k′ (pH 7) / (2:1) k′ (pH 7): mobile phase pH 7; for k′MIC (2:1): column 2:1, 0.36 μm; for (2:1) k′ (pH 3) / (2:1) k′ (pH 5) / (2:1) k′ (pH 7): column 2:1 mucin to PC IAM, 0.36 μm mucin layer
Protocol: Samples were dissolved in mobile phase solution and filtered (filter pore size, 0.45 μm) prior to injection. […] From this measurement and a measurement of the void volume (t0) the k′MIC could be determined. In addition, from the molecular weight of the compounds, Dm could be determined. These compounds, with the exceptions noted below, were used to generate the column constant (Vm/Vs).
For these reasons, the influence of pH on drug retention times was measured on columns having two different mucin layer thicknesses, 0.32 μm (column prepared with a 1:2 wt % of mucin to PC IAM particles) and 0.36 μm (column prepared with a 2:1 wt % of mucin to PC IAM particles)(Table 8). […] The influence of pH on drug retention time was measured by using different mobile phase buffers adjusted to pH 3, 5 or 7 on either the 0.32 μm or 0.36 μm column.
Capacity factors were calculated from drug retention times collected on columns having two different mucin layer thicknesses, 0.32 μm (column prepared with a 1:2 wt % of mucin to PC IAM particles) and 0.36 μm (column prepared with a 2:1 wt % of mucin to PC IAM particles).

Caco-2 = conditions: from literature, cited from earlier work

Compound	δ = log k′MIC − log k′IAM [1]	log k′MIC [1]	K′MIC ([1]; Table 5)	k′MIC [1]	Retention Time [1]	Dm [1]	log k′IAM [2]	Peff Loc-I-Gut (×10^−4 cm/s) ([4]; Table 5)	k′MIC (1:2) [5]	(1:2) k′ (pH 3) [5]	(1:2) k′ (pH 5) [5]	(1:2) k′ (pH 7) [5]	k′MIC (2:1) [5]	(2:1) k′ (pH 3) [5]	(2:1) k′ (pH 5) [5]	(2:1) k′ (pH 7) [5]	K′MIC ([1]; Table 6)	Peff MIC (×10^−4 cm/s) ([1]; Table 5)	Peff MIC (×10^−4 cm/s) ([1]; Table 6)	Peff Caco-2 (×10^−6 cm/s) (Caco-2; Table 5)	also measured
Cc1cc(=O)n(-c2ccccc2)n1C [Antipyrine]	1.91	1.89	77.57	77.5714	5.5	0.0053	−0.02	5.6 ×10^−4 cm/s	50.7	54.00	54.00	50.67	40.7	40.43	39.00	40.67					% Absorbed ([3]; in vivo): 100%; Peff Loc-I-Gut (×10^−4 cm/s) ([4]; Table 9): 5.6 ×10^−4 cm/s
CC(C)NCC(O)COc1cccc2ccccc12 (stereo not drawn) [Propranolol]	0.10	1.85	70.43	70.4286	5.0	0.0034	1.75			75.67	92.33	99.00		49.00	59.00	99.00	70.43	4.24 ×10^−4 cm/s	4.24 ×10^−4 cm/s	21.8 ×10^−6 cm/s	Peff Caco-2 (×10^−6 cm/s) (Caco-2; Table 6): 21.8 ×10^−6 cm/s
COCCc1ccc(OCC(O)CNC(C)C)cc1 (stereo not drawn) [Metoprolol]	1.14	1.64	43	43.2857	3.1	0.0015			47.3	50.67	50.67	47.33	35.7	36.14	41.86	35.67	43.29	1.21 ×10^−4 cm/s	1.21 ×10^−4 cm/s	23.7 ×10^−6 cm/s	Peff Caco-2 (×10^−6 cm/s) (Caco-2; Table 6): 23.7 ×10^−6 cm/s
CCOC(=O)[C@H](CCc1ccccc1)N[C@@H](C)C(=O)N1CCC[C@H]1C(=O)O [enalapril maleate]			35.86	35.8571	2.6	0.0020		0.2 ×10^−4 cm/s	34	27.33	37.33	34.00	20.7	31.86	21.86	20.67		0.38 ×10^−4 cm/s			Retention Time ([1]; listed as Enalapril maleate): 7.8; k′MIC ([1]; listed as Enalapril maleate): 110.429; stability during the HPLC analyses ([1]; two peaks, hydrolyzed and non-hydrolyzed forms): hydrolyzed to enalaprilat; % Absorbed ([3]; Table 5): 60%; Bioavailability ([3]; footnotes of Table 4 that tell the two cimetidine and two enalapril maleate lines apart): ^4Bioavailability = 60%;; percent absorption value ([3]; reported in literature, either of two values): 60 and 100; Peff Loc-I-Gut (×10^−4 cm/s) ([4]; Table 9): 0.2 ×10^−4 cm/s
NC(=O)N1c2ccccc2C=Cc2ccccc21 [carbamazepine]			59.00	59.0000	4.2	0.0042		4.3 ×10^−4 cm/s									59.00	2.96 ×10^−4 cm/s	2.96 ×10^−4 cm/s	19.9 ×10^−6 cm/s	Peff Caco-2 (×10^−6 cm/s) (Caco-2; Table 6): 19.9 ×10^−6 cm/s; Peff Loc-I-Gut (×10^−4 cm/s) ([4]; Table 6): 4.3 ×10^−4 cm/s
CC(C)(C)NCC(O)c1cc(O)cc(O)c1 (stereo not drawn) [Terbutaline]	1.14	1.64	43	43.2857	3.1	0.0036	0.50	0.3 ×10^−4 cm/s	39	45.67	49.00	39.00	35.7	34.71	37.57	35.67	43.29	1.21 ×10^−4 cm/s	1.21 ×10^−4 cm/s	0.47 ×10^−6 cm/s	Peff Caco-2 (×10^−6 cm/s) (Caco-2; Table 6): 0.47 ×10^−6 cm/s; % Absorbed ([3]; Table 5): 60%; % Absorbed ([3]; Table 6): 60%; % Absorbed ([3]; Table 7): 60%; Peff Loc-I-Gut (×10^−4 cm/s) ([4]; Table 6): 0.3 ×10^−4 cm/s; Peff Loc-I-Gut (×10^−4 cm/s) ([4]; Table 9): 0.3 ×10^−4 cm/s
C[C@]12C[C@H](O)[C@H]3[C@@H](CCC4=CC(=O)CC[C@@]43C)[C@@H]1CC[C@@H]2C(=O)CO [corticosterone]	0.18	1.78		60.4286	4.3	0.0029	1.60			24.00	22.33	24.00		20.43	20.43	24.00					% Absorbed ([3]; Table 7): 100%
